From ChEMBL document CHEMBL5120927, “LEGO-Lipophosphonoxins: A Novel Approach in Designing Membrane Targeting Antimicrobials” (J Med Chem, 2022)

Columns and labels:
Pseudomonas aeruginosa [1] = assay: Antibacterial activity against Pseudomonas aeruginosa ATCC 27853 = CCM 3955 assessed as inhibition of bacterial growth incubated for 24 hrs by microdilution assay; format: functional
Staphylococcus aureus [2] = assay: Antibacterial activity against Staphylococcus aureus ATCC 29213 = CCM 4223 assessed as inhibition of bacterial growth incubated for 24 hrs in presence of BSA by microdilution assay; format: functional
Staphylococcus aureus [3] = assay: Antibacterial activity against methicillin resistant Staphylococcus aureus 4591/A assessed as reduction in microbial growth incubated for 24 hrs by microdilution assay; format: functional
Enterococcus faecalis = assay: Antibacterial activity against Enterococcus faecalis ATCC 29212 = CCM 4224 assessed as inhibition of bacterial growth incubated for 24 hrs by microdilution assay; format: functional
Escherichia coli [4] = assay: Antibacterial activity against Escherichia coli ATCC 25922 = CCM 3954 assessed as inhibition of bacterial growth incubated for 24 hrs by microdilution assay; format: functional
[5] = Hemolytic activity in human RBC assessed as haemoglobin release measured after 3 hr; format: toxicity, cell-based, Erythrocyte; conditions: red blood cells (erythrocytes)
[6] = system: Staphylococcus epidermidis; assay: Antibacterial activity against Staphylococcus epidermidis CCM 7221 assessed as inhibition of bacterial growth incubated for 24 hrs by microdilution assay; format: functional
Escherichia coli [7] = assay: Antibacterial activity against Escherichia coli ATCC 25922 = CCM 3954 assessed as inhibition of bacterial growth incubated for 24 hrs in presence of BSA by microdilution assay; format: functional
Pseudomonas aeruginosa [8] = assay: Antibacterial activity against multidrug-resistant Pseudomonas aeruginosa assessed as reduction in microbial growth incubated for 24 hrs by microdilution assay; format: functional
Escherichia coli [9] = assay: Antibacterial activity against multidrug-resistant Escherichia coli CE5556 expressing CTX-M-15 assessed as reduction in microbial growth incubated for 24 hrs by microdilution assay; format: functional
Enterococcus faecium = assay: Antibacterial activity against vancomycin resistant Enterococcus faecium 419/ANA assessed as reduction in microbial growth incubated for 24 hrs by microdilution assay; format: functional
Staphylococcus aureus [10] = assay: Antibacterial activity against Staphylococcus aureus ATCC 29213 = CCM 4223 assessed as inhibition of bacterial growth incubated for 24 hrs by microdilution assay; format: functional
[11] = Cytotoxicity against human HepG2 cells assessed as reduction in cell viability; format: toxicity, cell-based
[12] = Gradient chromatographic hydrophobicity index of the compound at pH 3.7 by HPLC analysis; format: ADME

| Compound | MIC (Pseudomonas aeruginosa [1]) [µg/mL] | MIC (Staphylococcus aureus [2]) [µg/mL] | MIC (Staphylococcus aureus [3]) [µg/mL] | MIC (Enterococcus faecalis) [µg/mL] | MIC (Escherichia coli [4]) [µg/mL] | HC50 at 3 h [5] [µg/mL] | MIC [6] [µg/mL] | MIC (Escherichia coli [7]) [µg/mL] | MIC (Pseudomonas aeruginosa [8]) [µg/mL] | MIC (Escherichia coli [9]) [µg/mL] | MIC (Enterococcus faecium) [µg/mL] | MIC (Staphylococcus aureus [10]) [µg/mL] | CC50 [11] [µM] | CHI [12] |
| --- | --- | --- | --- | --- | --- | --- | --- | --- | --- | --- | --- | --- | --- | --- |
| CCCCCCCOP(=O)(CCN(CCCN)CCCN)OCCCCCCCOP(=O)(CCN(CCCN)CCCN)OCCCCCCC.Cl.Cl.Cl.Cl.Cl.Cl (stereo not given) | 16 | 1 | 1 | 4 | 8 | 287 | 0.5 | 1 | 8 | 2 | 64 | 1 | 89.5 | 33.9 |
| CCCCCCOP(=O)(CCN(CCCN)CCCN)OCCCCCCCCCCOP(=O)(CCN(CCCN)CCCN)OCCCCCC.Cl.Cl.Cl.Cl.Cl.Cl (stereo not given) | 4 | 3 | 1 | 4 | 0.5 | 743 | 0.5 | 1 | 8 | 8 | 32 | 0.5 | 17.5 | 34.8 |
| CCCCC/C=C\CCOP(=O)(CCN(CCCN)CCCN)OCCCCCCOP(=O)(CCN(CCCN)CCCN)OCC/C=C\CCCCC.Cl.Cl.Cl.Cl.Cl.Cl (stereo not given) | 2 | 2 | 1 | 2 | 1 | 262 | 0.5 | 0.5 | 2 | 1 | 8 | 0.5 | 30.8 | 37.5 |
| CCC/C=C\CCOP(=O)(CCN(CCCN)CCCN)OCCCCCCOP(=O)(CCN(CCCN)CCCN)OCC/C=C\CCC.Cl.Cl.Cl.Cl.Cl.Cl (stereo not given) | 128 | 16 | 4 | > 128 | 16 | > 200 | 1 | 32 | 128 | 32 | > 128 | 4 | > 99 | 29.6 |
| Cl.Cl.Cl.Cl.Cl.Cl.NCCCN(CCCN)CCP(=O)(OCCCOP(=O)(CCN(CCCN)CCCN)OCC12CC3CC(CC(C3)C1)C2)OCC12CC3CC(CC(C3)C1)C2 (stereo not given) | 64 | 4 | 4 | 8 | 8 | > 500 | 2 | 8 | 16 | 16 | 64 | 4 | > 99 | 32.6 |
| CCC/C=C\CCOP(=O)(CCN(CCCN)CCCN)OCCCOP(=O)(CCN(CCCN)CCCN)OCC/C=C\CCC.Cl.Cl.Cl.Cl.Cl.Cl (stereo not given) | 128 | 64 | 32 | > 128 | > 128 | > 200 | 8 | > 128 | 128 | > 128 | > 128 | 64 | > 99 | 23.4 |
| CCC/C=C\CCOP(=O)(CCN(CCCNC(=N)N)CCCNC(=N)N)OCCCCCCOP(=O)(CCN(CCCNC(=N)N)CCCNC(=N)N)OCC/C=C\CCC.Cl.Cl.Cl.Cl.Cl.Cl (stereo not given) | 64 | 2 | 2 | 64 | 2 | > 500 | 2 | 2 | 64 | 2 | > 128 | 2 | – | 29.7 |
| CCC/C=C\CCOP(=O)(CCN(CCCN)CCCN)OCCCCCCCOP(=O)(CCN(CCCN)CCCN)OCC/C=C\CCC.Cl.Cl.Cl.Cl.Cl.Cl (stereo not given) | 128 | 8 | 4 | 64 | 4 | > 200 | 2 | 64 | 128 | 16 | 128 | 4 | – | 31.3 |
